Measurements: ChEMBL document CHEMBL3272125, “Antiprotozoal thiazoles. 2. 2-(5-Nitro-2-furyl-, thiazolyl-, and 1-methylimidazolyl-)thiazoles” (J Med Chem, 1977)

Key:
Trypanosoma cruzi [1] = test: Antiprotozoal activity against Trypanosoma cruzi BH infected in CFW mouse assessed as increase in host mean survival time at 100 mg/kg, ip administered daily for 5 days starting 4 hrs post-parasite infection (reference value: 14 +/- 1 days); format: functional; details: route intraperitoneal
Trypanosoma cruzi [2] = test: Antiprotozoal activity against Trypanosoma cruzi BH infected in CFW mouse assessed as increase in host mean survival time at 50 mg/kg, ip administered daily for 5 days starting 4 hrs post-parasite infection (reference value: 14 +/- 1 days); format: functional; details: route intraperitoneal
Trypanosoma cruzi [3] = test: Antiprotozoal activity against Trypanosoma cruzi BH infected in CFW mouse assessed as increase in host mean survival time at 25 mg/kg, ip administered daily for 5 days starting 4 hrs post-parasite infection (reference value: 14 +/- 1 days); format: functional; details: route intraperitoneal
Trypanosoma cruzi [4] = test: Antiprotozoal activity against Trypanosoma cruzi BH infected in CFW mouse assessed as increase in host mean survival time at 10 mg/kg, ip administered daily for 5 days starting 4 hrs post-parasite infection (reference value: 14 +/- 1 days); format: functional; details: route intraperitoneal
Trypanosoma cruzi [5] = test: Antiprotozoal activity against Trypanosoma cruzi BH infected in CFW mouse assessed as increase in host mean survival time at 5 mg/kg, ip administered daily for 5 days starting 4 hrs post-parasite infection (reference value: 14 +/- 1 days); format: functional; details: route intraperitoneal
Trypanosoma cruzi [6] = test: Antiprotozoal activity against Trypanosoma cruzi BH infected in CFW mouse assessed as increase in host mean survival time at 200 mg/kg, po administered daily for 5 days starting 4 hrs post-parasite infection (reference value: 14 +/- 1 days); format: functional
Trypanosoma cruzi [7] = test: Antiprotozoal activity against Trypanosoma cruzi BH infected in CFW mouse assessed as increase in host mean survival time at 100 mg/kg, po administered daily for 5 days starting 4 hrs post-parasite infection (reference value: 14 +/- 1 days); format: functional
Trypanosoma cruzi [8] = test: Antiprotozoal activity against Trypanosoma cruzi BH infected in CFW mouse assessed as increase in host mean survival time at 50 mg/kg, po administered daily for 5 days starting 4 hrs post-parasite infection (reference value: 14 +/- 1 days); format: functional
Trypanosoma cruzi [9] = test: Antiprotozoal activity against Trypanosoma cruzi BH infected in CFW mouse assessed as increase in host mean survival time at 25 mg/kg, po administered daily for 5 days starting 4 hrs post-parasite infection (reference value: 14 +/- 1 days); format: functional
[10] = Acute toxicity in ip dosed CFW mouse administered daily for 5 days; format: organism-based; details: in vivo
[11] = Acute toxicity in po dosed CFW mouse administered daily for 5 days; format: organism-based; details: in vivo
Trypanosoma cruzi [12] = test: Antiprotozoal activity against Trypanosoma cruzi BH infected in CFW mouse assessed as increase in host mean survival time at 10 mg/kg, po administered daily for 5 days starting 4 hrs post-parasite infection (reference value: 14 +/- 1 days); format: functional
Trypanosoma cruzi [13] = test: Antiprotozoal activity against Trypanosoma cruzi BH infected in CFW mouse assessed as increase in host mean survival time at 5 mg/kg, po administered daily for 5 days starting 4 hrs post-parasite infection (reference value: 14 +/- 1 days); format: functional
Trypanosoma cruzi [14] = test: Antiprotozoal activity against Trypanosoma cruzi Y infected in CFW mouse assessed as increase in host mean survival time at 25 mg/kg, po administered daily for 10 days starting 4 hrs post-parasite infection; format: functional
Trypanosoma cruzi [15] = test: Antiprotozoal activity against Trypanosoma cruzi Y infected in CFW mouse assessed as increase in host mean survival time at 10 mg/kg, po administered daily for 10 days starting 4 hrs post-parasite infection; format: functional
Trypanosoma cruzi [16] = test: Antiprotozoal activity against Trypanosoma cruzi Y infected in CFW mouse assessed as increase in host mean survival time at 5 mg/kg, po administered daily for 10 days starting 4 hrs post-parasite infection; format: functional
Trypanosoma cruzi [17] = test: Antiprotozoal activity against Trypanosoma cruzi Peru infected in CFW mouse assessed as increase in host mean survival time at 25 mg/kg, po administered daily for 10 days starting 4 hrs post-parasite infection; format: functional
Trypanosoma cruzi [18] = test: Antiprotozoal activity against Trypanosoma cruzi Peru infected in CFW mouse assessed as increase in host mean survival time at 10 mg/kg, po administered daily for 10 days starting 4 hrs post-parasite infection; format: functional
Trypanosoma cruzi [19] = test: Antiprotozoal activity against Trypanosoma cruzi Peru infected in CFW mouse assessed as increase in host mean survival time at 5 mg/kg, po administered daily for 10 days starting 4 hrs post-parasite infection; format: functional
Trypanosoma cruzi [20] = test: Antiprotozoal activity against high myocardial tissue infiltration leishmanial form of Trypanosoma cruzi BHC/10 infected in CFW mouse assessed as increase in host mean survival time at 25 mg/kg, po administered daily for 10 days starting 4 hrs post-parasite infection; format: functional
Trypanosoma cruzi [21] = test: Antiprotozoal activity against high myocardial tissue infiltration leishmanial form of Trypanosoma cruzi BHC/10 infected in CFW mouse assessed as increase in host mean survival time at 10 mg/kg, po administered daily for 10 days starting 4 hrs post-parasite infection; format: functional
Trypanosoma cruzi [22] = test: Antiprotozoal activity against high myocardial tissue infiltration leishmanial form of Trypanosoma cruzi BHC/10 infected in CFW mouse assessed as increase in host mean survival time at 5 mg/kg, po administered daily for 10 days starting 4 hrs post-parasite infection; format: functional

Row | Structure (SMILES) | MST (Trypanosoma cruzi [1]) | MST (Trypanosoma cruzi [2]) | MST (Trypanosoma cruzi [3]) | MST (Trypanosoma cruzi [4]) | MST (Trypanosoma cruzi [5]) | MST (Trypanosoma cruzi [6]) | MST (Trypanosoma cruzi [7]) | MST (Trypanosoma cruzi [8]) | MST (Trypanosoma cruzi [9]) | LD50 at 120 h [10] | LD50 at 120 h [11] | MST (Trypanosoma cruzi [12]) | MST (Trypanosoma cruzi [13]) | further results
1 | O=[N+]([O-])c1ccc(-c2nc(/C=N/N3CCCCC3)cs2)o1 | 60 days | 60 days | 42 days | 3 days | 0 days | 32 days | 39 days | 8 days | 0 days | > 800 mg/kg | > 1600 mg/kg |  |  | 
2 | O=[N+]([O-])c1ccc(-c2nc(/C=N/N3CCCCCC3)cs2)o1 | 39 days | 7 days | 4 days |  |  | 2 days | 0 days |  |  | > 800 mg/kg | > 1600 mg/kg |  |  | 
3 | O=[N+]([O-])c1ccc(-c2nc(/C=N/N3CCOCC3)cs2)o1 | 60 days | 60 days | 60 days | 27 days | 0 days | 60 days | 60 days | 41 days | 19.5 days | > 800 mg/kg | > 1600 mg/kg | 0 days | 0 days | 
4 | O=[N+]([O-])c1ccc(-c2nc(/C=N/N3CCSCC3)cs2)o1 | 60 days | 60 days | 18 days | 0 days | 0 days | 18 days | 4 days | 0 days |  | > 800 mg/kg | > 1600 mg/kg |  |  | 
5 | O=[N+]([O-])c1ccc(-c2nc(/C=N/N3CCS(=O)(=O)CC3)cs2)o1 | 60 days | 44 days | 18.5 days | 5 days | 0 days | 5 days | 3 days | 7 days | 6 days | > 800 mg/kg | > 1600 mg/kg | 0 days |  | 
6 | O=[N+]([O-])c1cnc(-c2nc(/C=N/N3CCCCC3)cs2)s1 | 0 days |  |  |  |  | 0 days |  |  |  | > 800 mg/kg | > 1600 mg/kg |  |  | 
7 | O=[N+]([O-])c1cnc(-c2nc(/C=N/N3CCOCC3)cs2)s1 | 4 days |  |  |  |  | 0 days |  |  |  | > 800 mg/kg | > 1600 mg/kg |  |  | 
8 | O=[N+]([O-])c1cnc(-c2nc(/C=N/N3CCSCC3)cs2)s1 | 4 days | 3 days | 0 days |  |  | 1 days | 0 days |  |  | > 800 mg/kg | > 1600 mg/kg |  |  | 
9 | Cn1c([N+](=O)[O-])cnc1-c1nc(/C=N/N2CCOCC2)cs1 | 60 days | 7 days | 4 days | 0 days |  |  |  | 0 days | 0 days | > 800 mg/kg | > 1600 mg/kg |  |  | 
10 | Cn1c([N+](=O)[O-])cnc1-c1nc(/C=N/N2CCS(=O)(=O)CC2)cs1 | 60 days | 60 days | 60 days | 60 days | 18.5 days | 60 days | 60 days | 60 days | 60 days | > 800 mg/kg | > 1600 mg/kg | 14 days | 15 days | MST (Trypanosoma cruzi [14]): 60 days; MST (Trypanosoma cruzi [15]): 60 days; MST (Trypanosoma cruzi [16]): 37 days; MST (Trypanosoma cruzi [17]): 60 days; MST (Trypanosoma cruzi [18]): 60 days; MST (Trypanosoma cruzi [19]): 35 days; MST (Trypanosoma cruzi [20]): 22 days; MST (Trypanosoma cruzi [21]): 12 days; MST (Trypanosoma cruzi [22]): 4 days
11 | O=[N+]([O-])c1ccc(-c2nc(/C=N/N3CCOCC3)cs2)s1 | 60 days | 27 days | 12 days | 0 days | 0 days | 60 days | 0 days | 0 days | 0 days | > 800 mg/kg | > 1600 mg/kg | 0 days | 0 days | 
12 | CC1CS(=O)(=O)CCN1/N=C/c1ccc([N+](=O)[O-])o1 (stereo unspecified) [NIFURTIMOX] | 60 days | 60 days | 60 days | 60 days | 2.5 days | 60 days | 60 days | 60 days | 60 days |  |  | 4 days | 0 days | MST (Trypanosoma cruzi [14]): 40 days; MST (Trypanosoma cruzi [15]): 8 days; MST (Trypanosoma cruzi [16]): 0 days; MST (Trypanosoma cruzi [17]): 60 days; MST (Trypanosoma cruzi [18]): 60 days; MST (Trypanosoma cruzi [19]): 0 days; MST (Trypanosoma cruzi [20]): 6.5 days; MST (Trypanosoma cruzi [21]): 5.5 days; MST (Trypanosoma cruzi [22]): 3 days
